The results in this text go back to patent publication US5137890A, “4-phenyl tetrahydropyrido(4,3-d)pyrimidines” (Ortho Pharmaceutical Corporation, priority 1990, dated 1992).

Each structure is given as a SMILES string. Counter-ions that a name gives are not always drawn.

Test [1] deals with Ethanol-Induced Lesions. The experiment in a line: Cytoprotection: inhibition of ethanol-induced lesions. The test is classed as in vivo, male, Charles River rats. The settings on record: Rattus norvegicus, oral, 1 hour before 50% ethanol. On the procedure:
Using the procedures of Robert, A. et al., Gastroenterology 77, 433(1979), male, Charles River rats weighing between 140 and 220 g were fasted overnight, but allowed water ad libitum. The rats were, however, deprived of water during the experiment. The rats were weighed and pretreated orally with the example compounds at the doses shown below in Table 1. One hour later, the necrotizing agent, 50% ethanol, was administered orally in a dose volume of 1 ml/animal. After an additional hour, the rats were sacrificed with CO2, the stomachs removed, inflated with distilled water, opened along the greater curvature and laid out on a flat surface. The presence of mucosal bleeding was noted and after wiping off the mucosa, the presence of submucosal bleeding was also noted. The incidence of lesions in the mucosa and the submucosa was statistically analyzed by the method of Chisquares using Yates correction.

Test [2] has as its system 80 mg/kg aspirin. The experiment in a line: Cytoprotection vs. 80 mg/kg aspirin (footnotes of Table 1). The test is classed as in vivo.

For the compound `CC(=O)N1CCc2nc(N)nc(-c3ccccc3)c2C1.O` [Example 23, 6-Acetyl-2-amino-4-phenyl-5,6,7,8-tetrahydropyrido[4,3-d]pyrimidine Monohydrate], the results for the ED50 in test [1] and in test [2] were 2.3 mg/kg and 9.5 mg/kg, respectively.
With `CCN(CC)CCN1CCc2nc(N)nc(-c3ccc(F)cc3)c2C1` [Example 26, 2-Amino-6-(2-diethylaminoethyl)-4-(4-fluorophenyl)-5,6,7,8-tetrahydropyrido[4,3-d]pyrimidine Trihydrochloride], the inhibition in vivo – broadly, the change of the read-out against control, counted positive when it falls – at 10 mg/kg in test [1] was 80%.
Turning to `Nc1nc2c(c(-c3ccc(Cl)cc3)n1)CNCC2` [Example 15, 2-Amino-4-(4-chlorophenyl)-5,6,7,8-tetrahydropyrido[4,3-d]pyrimidine Dihydrochloride], the inhibition in vivo at 10 mg/kg in test [1] turned out to be 40%.
For `Nc1nc2c(c(-c3ccc(F)cc3)n1)CNCC2` [Example 16, 2-amino-4-(4-fluorophenyl)-5,6,7,8-tetrahydropyrido[4,3-d]pyrimidine dihydrochloride hemihydrate], the inhibition in vivo at 10 mg/kg in test [1] amounted to 80%.
Compound `CC(=O)N1CCc2nc(N)nc(-c3ccc(F)cc3)c2C1` [Example 14, 6-Acetyl-2-amino-4-(4-fluorophenyl)-5,6,7,8-tetrahydropyrido[4,3-d]pyrimidine Monohydrate] gave an inhibition in vivo at 10 mg/kg in test [1] of 80%.
`CCCN(CCC)c1nc2c(c(-c3ccc(C)cc3)n1)CN(C(C)=O)CC2` [Example 25, 6-Acetyl-5,6,7,8-tetrahydro-4-(4-methylphenyl) -2-dipropylaminopyrido[4,3-d]-pyrimidine Monohydrate] returned an inhibition in vivo at 10 mg/kg in test [1] of 40%.
On the same count and under the same terms, next, `CN1CCc2nc(N)nc(-c3ccc(Cl)cc3)c2C1` [Example 22, 2-Amino-4-(4-chlorophenyl)-6-methyl-5,6,7,8-tetrahydropyrido[4,3-d]pyrimidine 1/4 Hydrate]: 100%.
On to `CCNc1nc2c(c(-c3ccc(Cl)cc3)n1)CN(CC)CC2` [Example 11, 4-(4-Chlorophenyl)-6-ethyl-2-ethylamino-5,6,7,8-tetrahydropyrido[4,3-d]pyrimidine], for which the 50% effect level in test [1] (ED50) was put at a dose of 9.5 mg/kg.
With `C=CCN1CCc2nc(N)nc(-c3ccc(F)cc3)c2C1.Cl.Cl` [Example 21, 6-Allyl-2-amino-4-(4-fluorophenyl)-5,6,7,8-tetrahydropyrido[4,3-d]pyrimidine Dihydrochloride], the median effective dose (ED50) (as a rule, the dose that gives a 50% effect, or the effect in half of the subjects) in test [1] was determined as 5 mg/kg.
`CCNc1nc2c(c(-c3ccc(F)cc3)n1)CN(C(C)=O)CC2` [Example 7, 6-Acetyl-4-(4-fluorophenyl)-2-ethylamino-5,6,7,8-tetrahydropyrido[4,3-d]pyrimidine]: in test [1], the 50% effect level (ED50) was put at a dose of 5 mg/kg.
For the compound `CC(=O)N1CCc2nc(C)nc(-c3ccc(C)cc3)c2C1` [Example 24, 6-Acetyl-2-methyl-4-(4-methylphenyl)-5,6,7,8-tetrahydropyrido[4,3-d]pyrimidine Monohydrate], in test [1], testing at 10 mg/kg gave an inhibition in vivo of 40%.
As to `CCN1CCc2nc(N)nc(-c3ccc(Cl)cc3)c2C1.Cl.Cl` [Example 17, 2-Amino-4-(4-chlorophenyl)-6-ethyl-5,6,7,8-tetrahydropyrido[4,3-d]pyrimidine Dihydrochloride], the values for the ED50 in test [1] and in test [2] were 3.2 mg/kg and 14.5 mg/kg, respectively.
As to `CN(C)CCCN1CCc2nc(N)nc(-c3ccc(F)cc3)c2C1` [Example 27, Trihydrochloride], the ED50 in test [1] was ~7 mg/kg.
In the case of `CC(=O)N1CCc2nc(N)nc(-c3ccc(Cl)cc3)c2C1` [Example 13, 6-Acetyl-2-amino-4-(4-chlorophenyl)-5,6,7,8-tetrahydropyrido[4,3-d]pyrimidine], the ED50 in test [1] was ~3 mg/kg.
As for `CCN1CCc2nc(Nc3ccc(C(F)(F)F)cc3)nc(-c3ccc(Cl)cc3)c2C1` [Example 5, 4-(4-chlorophenyl)-6-ethyl-2-(4-trifluromethylphenylamino)-5,6,7,8-tetrahydropyrido[4,3-d]pyrimidine dihydrochloride monohydrate], 10 mg/kg produced 20% inhibition in vivo in test [1].
The compound `C=CCN1CCc2nc(NCC)nc(-c3ccc(Cl)cc3)c2C1` [Example 9, 6-Allyl-4-(4-chlorophenyl)-2-ethylamino-5,6,7,8-tetrahydropyrido[4,3-d]pyrimidine] came in with an inhibition in vivo at 10 mg/kg in test [1] of 80%.
Compound `CC(=O)N1CCc2nc(C)nc(-c3ccc(Cl)cc3)c2C1` [Example 1, 6-Acetyl-4-(4-chlorophenyl)-2-methyl-5,6,7,8-tetrahydropyrido[4,3-d]pyrimidine] came in with an inhibition in vivo at 10 mg/kg in test [1] of 20%.
Take `C=CCN1CCc2nc(N)nc(-c3ccc(Cl)cc3)c2C1.Cl.Cl` [Example 20, 6-Allyl-2-amino-4-(4-chlorophenyl)-5,6,7,8-tetrahydropyrido[4,3-d]pyrimidine Dihydrochloride]: in test [1], the 50% effect level (ED50) was put at a dose of 7.9 mg/kg.
`CCN1CCc2nc(N)nc(-c3ccc(F)cc3)c2C1` [Example 18, 2-Amino-4-(4-fluorophenyl)-6-ethyl-5,6,7,8-tetrahydropyrido[4,3-d]pyrimidine] registered an ED50 in test [1] of 3.7 mg/kg. Also, the “8/10 v. 80 mg/kg aspirin” value in test [2] (at 40 mg/kg v. 80 mg/kg aspirin) was 8/10.
`CCCN1CCc2nc(N)nc(-c3ccc(Cl)cc3)c2C1` [Example 19, 2-Amino-4-(4-chlorophenyl)-6-propyl-5,6,7,8-tetrahydropyrido[4,3-d]-pyrimidine Dihydrochloride 1/4 Hydrate] gave an ED50 in test [1] of 2.7 mg/kg.
For `CCNc1nc2c(c(-c3ccc(F)cc3)n1)CNCC2.Cl` [Example 12, 2-Ethylamino-4-(4-fluorophenyl)5,6,7,8-tetrahydropyrido[4,3-d]pyrimidine Monohydrochloride], the ED50 in test [1] was found to be 4.7 mg/kg. In addition, the “8/10 vs. 80 mg/kg aspirin” value in test [2] (at 10 mg/kg vs. 80 mg/kg aspirin) is listed as 8/10.
`CCNc1nc2c(c(-c3ccc(Cl)cc3)n1)CN(Cc1ccccc1)CC2` [Example 10, 6-Benzyl-4-(4-chlorophenyl)-2-ethylamino-5,6,7,8-tetrahydropyrido[4,3-d]pyrimidine] showed an inhibition in vivo at 10 mg/kg in test [1] of 20%.
In test [1], `CC(=O)N1CCc2nc(C)nc(-c3ccc(F)cc3)c2C1` [Example 2, 6-Acetyl-4-(4-fluorophenyl)-2-methyl-5,6,-7,8-tetrahydropyrido[4,3-d]pyrimidine Monohydrochloride Monohydrate] gave an inhibition in vivo at 10 mg/kg of 100%. For the same compound, the “8/10 vs. 80 mg/kg aspirin” value in test [2] (at 20 mg/kg vs. 80 mg/kg aspirin) is 8/10.
